From patent US12409187B2, “PH regulating hydrogels that neutralize cancer cell environment acidosis and increase chemotherapy efficacy” (Brown University, priority 2021, dated 2025) come the findings set out here.

SMILES strings stand for the structures.

Type in all cases: cell-based, human
Assay [1] deals with MDA-MB-231 breast cancer cells. The experiment in a line: pH-dependent doxorubicin efficacy on cell proliferation. The settings on record: 0.25 μM doxorubicin, 5-day treatment.
The subject of assay [2] is MDA-MB-231 breast cancer cell line. Briefly: Cell proliferation assay (image confluency, manual cell count). The settings on record: 1 μM doxorubicin. As to the method: Cell viability. Incubated MDA-MB-231 cells were passaged from a confluent T-flask into a 12-well culture plate, and the treatment hydrogels were added. For the viability study, the effect of modified PEG hydrogels bicarbonate concentrations of 200, 400, 600, and 800 mM was analyzed along with the control group with no treatment (bicarbonate), and a vehicle control of PEG with no bicarbonate. The cells were imaged every twenty-four hours under Nikon TS 100 inverted light microscope attached with Excelis HD camera and processed using an ImageJ image processing macro (performed by Gavin Mays) to estimate cell confluency from the imaged area coverage. At the end of day 5, the number of live and dead cells were estimated by Trypan staining and cell counting using a hemocytometer. Percentage viability was calculated from the number of live cells as a fraction of total cells.
Cell proliferation assay. MDA-MB-231 breast cancer cell line. Cells given pH, hydrogel, sodium bicarbonate, and doxorubicin treatment. At twenty-four hours, cell confluency is observed and recorded via image processing. At Day 6, cell counting was performed using a hemocytometer. All assays increased in confluency. […] Assays without hydrogels consistent with confluency analysis. Assays with any hydrogel have low manual cell counts.

Another assay has as its system MDA-MB-231 cells. Briefly: MTT assay (metabolic activity), Example 2. The following applies: 1 μM doxorubicin. The method, then:
MTT assay. Measures metabolic activity. Cells reduce membrane permeable salt MTT (yellow) to formazan crystals (purple). Incubate for three days with treatment. Incubate for four hours with MTT. Add solubilization solution. Incubate for twelve hours. Measure absorbance of every well at OD570 nm-OD650 nm. See Riss et al., The Assay Guidance Manual (Eli Lilly & Company and the National Center for Advancing Translational Sciences. Bethesda, MD, USA, 2016). Hydrogels added to 7.4 pH with no drug had decreased metabolic activity. Hydrogels added to 6.5 pH with drug had decreased metabolic activity. Base-releasing hydrogel reduced cell proliferation, migration, and metabolic activity at an alkaline pH. Base-releasing hydrogel improved doxorubicin efficacy against cell proliferation, migration, and metabolic activity at an alkaline pH. Neutral-pH-adapted cells prefer neutral pH.
The metabolism of cancer cells can be measured by the activity of the mitochondrial reductase enzyme. […] The metabolic activity of the cells in culture can be measured by this conversion of MTT to formazan crystals. The absorbance can then be recorded at OD570 nm and OD650 nm to quantify the formazan produced by the cells through the mitochondrial reductase conversion from MTT. […] The absorbance is measured spectrophotometrically via a plate reader.

Turning to `COc1cccc2c1C(=O)c1c(O)c3c(c(O)c1C2=O)C[C@@](O)(C(=O)CO)C[C@@H]3O[C@H]1C[C@H](N)[C@H](O)[C@H](C)O1` [doxorubicin], in assay [1] (pH 6.5), the “efficacy at preventing cell proliferation” value came to 40%. Also, the “effectiveness at preventing cell proliferation” value in assay [1] (pH 7.4) is given as “approximately 95%”. Besides, the “change of cell proliferation over the six-day trial period” value in assay [2] is on record as “decrease”. Moreover, the “metabolic activity versus assays without doxorubicin” value with MDA-MB-231 cells is on record as “statistically significantly less metabolic activity”.
